Data taken from PMC5656322, “BAK1 is involved in AtRALF1-induced inhibition of root cell expansion” (PLoS Genetics, 2017).
Entries after “also recorded” stand apart in the source; their conditions may differ. Where no end group is shown, it is not given here.

Key:
[1] = system: Arabidopsis seedlings, primary root; test: Root growth inhibition assay, vertical plates; assay type: in vivo, Arabidopsis thaliana
Protocol: (A) and (B) Arabidopsis seedlings (2 days old) were treated with 10 μM AtRALF1 or water (H20) for 2 days. The values are the mean ± SD of at least 25 seedlings. Triple asterisks indicate P < 0.01 (Student’s t test); ns, not significant. (C) Four-day-old seedlings were transferred to media containing different concentrations of AtRALF1, and the primary root length was measured after 8 days of treatment. The data represent the mean value ± SD of 30 seedlings. […] Representative Arabidopsis seedlings after 8 days of treatment with AtRALF1 are shown below. Seedlings were arranged on plates after the treatment for imaging. Scale bars, 1 cm. (D) Two-day-old seedlings were treated with 10 μM AtRALF1 or water for 2 days, and root cell length was measured after 2 days of treatment. Cells from the root endodermis in the differentiation zone were measured. The values are the mean ± SD of approximately 150 cells. Triple asterisks indicate P < 0.01 (Student’s t test); ns, not significant.
Aliquots of 1 ml of medium containing seeds were distributed into 24-well plates. The peptides (10 μM) were added after 2 days, and the root length was measured 2 days after treatment. To maximize root growth, the seeds were germinated in vertical plates. […] The root length was measured 8 days after treatment unless stated otherwise. Control plants were grown under identical conditions in a peptide-free medium. Quantitative data were obtained as previously described. […] The data from one representative experiment are shown. For cell length measurements, AtRALF1 peptide (10 μM) was added after 2 days of germination, and the cell length was measured after 2 days of treatment. The cell wall was stained with a 1 mg ml^-1 propidium iodide solution (Sigma) in the dark for 15 min and washed twice with water. Cells of the endodermis of the root differentiation zone were imaged and measured using confocal microscopy (Olympus FV1000). Approximately 30 plants from each genetic background and at least 5 cells per root were measured. The wavelengths for excitation and emission were 555 and 655 nm, respectively. Image processing was completed using the Olympus FluoView software.
Supplementary file pgen.1007053.s004.pdf: S4 Fig Analyses of root growth of Arabidopsis seedlings treated with AtRALF1 peptide for 8 days and evaluated daily. Four-day-old seedlings were transferred to media containing different concentrations of AtRALF1, and the primary root length was measured daily during the 8 days of treatment. Genotypes Wt, bak1-1, bak1-3 and bak1-4 are indicated on top of each series of graphics. The seedlings were treated with 0, 0.5, 1, 5 and 10 μM AtRALF1. The data represent the mean values ± SD of 30 seedlings. Double and triple asterisks indicate P < 0.05 and P <0.01, respectively (Student’s t test); ns, not significant. (PDF) Click here for additional data file.
Four-day-old seedlings were transferred to medium containing 10 μM AtRALF1, and the primary root length was measured after 8 days of treatment. The data represent the mean value ± SD of 20 seedlings. Triple asterisks indicate P < 0.01 (Student’s t test); ns, not significant. Representative Arabidopsis seedlings after 8 days of treatment with AtRALF1 are shown. The seedlings were arranged on plates after the treatment for imaging. Scale bars, 1 cm. (PDF) Click here for additional data file.
Four-day-old seedlings were transferred to medium containing 0.1 μM BAP, and the primary root length was measured after 8 days of treatment. The data represent the mean value ± SD of 10 seedlings.

[2] = ITC of AtRALF1 into buffer; assay type: physicochemical; conditions: AtRALF1 0.7 mM injected in 15 mM HEPES, pH 6.8, 25°C (S15A Fig)
Protocol: ITC was performed using a VP ITC with a 1.4 ml standard cell and a 293 μl titration syringe. Proteins were dissolved in ITC buffer (15 mM HEPES (4-(2-hydroxyethyl)-1-piperazineethanesulfonic acid, pH 6.8) and the experiments were performed at 25°C. Molar protein concentration for BAK1-ECD and AtRALF1 were calculated using their molecular weight of 25,654.04 and 7,631 Da, respectively (determined by HPLC). The concentrations for the complex titrations were 0.7 mM of protein (BAK1-ECD) in the syringe and 0.03 mM of ligand (AtRALF1) in the cell at time intervals of 300 s (28 injections of volume 10 μl) to ensure that the titration peak returned to the baseline.
Supplementary file pgen.1007053.s015.pdf: S15 Fig Isothermal titration calorimetry (ITC) of AtRALF1 and BAK1-ECD. (A) AtRALF1 in 15mM HEPES, pH 6.8. ITC experiments were simulated using the following parameters: 28 injections of AtRALF1 (0.7 mM, volume 10 μL) in HEPES (volume cell = 1.4 mL) at 25°C. (B) BAK1-ECD in 15mM HEPES, pH 6.8. ITC experiments were simulated using the following parameters: 28 injections of BAK1-ECD (0.7 mM, volume 10 μL) in HEPES (volume cell = 1.4 mL) at 25°C. (C) HEPES in AtRALF1. ITC experiments were simulated using the following parameters: 28 injections of buffer 15mM HEPES, pH 6.8 (volume 10 μL) in AtRALF1 (0.03 mM, volume cell = 1.4 mL) at 25°C. (PDF) Click here for additional data file.

[3] = system: AtPRP3, AtHRGP2, CPD and DWF4 genes; conditions: cited from earlier work
From the text: AtRALF1-overexpressing plants are less sensitive to exogenous brassinosteroids (BRs). […] AtRALF1 also induces two cytochrome P450 monooxygenase genes related to the BR biosynthetic pathway: Constitutive Photomorphism and Dwarfism (CPD) and DWARF4 (DWF4). We exposed the bak1 mutants to the same concentration of AtRALF1 and evaluated the capacity to induce the AtPRP3, AtHRGP2, CPD and DWF4 genes. None of the AtRALF1-inducible genes were ...

cell suspensions = conditions: cited from earlier work

## AtRALF1: root-specific RALF isoform in Arabidopsis; recombinant peptide hormone produced in E. coli (ATTKYISYQSLKRNSVPCSRRGASYYNCQNGAQANPYSRGCSKIARCRS; ends and bridges not checked; cysteine pairing not given here)
[1]; 8 days of treatment, bak1-1, bak1-3, bak1-4 mutants
  sensitivity of root growth: insensitive to the AtRALF1 peptide
[1]; bak1-mutant lines, 8-day treatment, 0-10 μM
  daily root growth: No differences were observed in the daily root growth
[1]; bak1 mutants, 8 days
  highest concentration to which bak1 mutants are insensitive: ≥ 10 µM
[1]; bak1 mutants, side by side with fer4, 8 days
  sensitivity of root growth: insensitive to any tested concentrations of the peptide
[1]; bak7 mutant, 10 μM, 8 days
  primary root growth inhibition: inhibited primary root growth
[1]; fer4 mutant, side by side with bak1 mutants, 8 days
  sensitivity of root growth: conditional insensitivity to AtRALF1 treatment; also recorded: insensitive to AtRALF1 peptide in low concentrations only
[1]; wild-type, 0.5-10 μM tested, P < 0.05 / 0.01
  dose with significant differences in root growth by the third day of treatment: ≥ 1 µM
[2]
  heat of dissociation: exhibits heat of dissociation
[3]; Arabidopsis seedling roots, ref [9]
  induction of AtPRP3 and AtHRGP2 genes: induces, in a dose-dependent manner
[3]; ref [9]
  induction of CPD and DWF4 genes: induces
[3]; roots of treated seedlings, ref [16]–[18]
  AtEXPA5 expression: repressed in the roots of AtRALF1-treated seedlings
Cell suspensions; ref [1],[11]
  alkalinization of the extracellular media: induces a rapid alkalinization of the extracellular media of cell suspensions
Cell suspensions; ref [5]
  alkalinization of the extracellular medium: alkalinizes the extracellular medium of cell suspensions
